# Test results from patent publication US10787413B2, “Derivatives of curcuminoids and use thereof as an anticancer agent” (CHINA MEDICAL UNIVERSITY, priority 2016, dated 2020).
# Like-named read-outs stand apart in the source and are kept apart here.
# How the values were obtained:
# [1] = system: MDA-MB-231 breast cancer cell; test: MTT cell viability assay, MDA-MB-231 breast cancer cell; assay type: cell-based, human; details: for IC50: Homo sapiens
# Protocol: (§1) Cell viability was evaluated by measuring the reduction in MTT to yield blue formazan. Cells were cultured in 96-well plates, allowed to attach overnight, and then treated with compounds. After treatment, MTT solution (1 mg/ml) was added to each well, and plates were incubated for another 4 h.
# [2] = system: HCT-116 colon cancer cell; test: MTT cell viability assay, HCT-116 colon cancer cell; assay type: cell-based; details: Homo sapiens
# Protocol: as §1, with “h. Medium were removed, blue formazan was dissolved in DMSO, and the absorbance was read at 570 nm^20.” for “h.”
# PC3 prostate cancer cell = test: MTT cell viability assay, PC3 prostate cancer cell; assay type: cell-based
# Protocol: as §1, with “h. Medium were removed, blue formazan was dissolved in DMSO, and the absorbance was read at 570 nm^20.” for “h.”
# T47D = test: Cell viability, T47D breast cancer cells; assay type: cell-based; details: Homo sapiens; T47D (ER+/PR+), treated for 24 h
# Protocol: as §1, with “h. Medium were removed, blue formazan was dissolved in DMSO, and the absorbance was read at 570 nm^20.” for “h.”
# MCF-7 = test: Cell viability, MCF-7 breast cancer cells; assay type: cell-based; details: Homo sapiens, MCF7; MCF-7 (ER+/PR+), treated for 24 h
# Protocol: as §1, with “h. Medium were removed, blue formazan was dissolved in DMSO, and the absorbance was read at 570 nm^20.” for “h.”
# MDA-MB-453 = test: Cell viability, MDA-MB-453 breast cancer cells; assay type: cell-based; details: Homo sapiens; MDA-MB-453 (Her-2+), treated for 24 h
# Protocol: as §1, with “h. Medium were removed, blue formazan was dissolved in DMSO, and the absorbance was read at 570 nm^20.” for “h.”
# BT-474 = test: Cell viability, BT-474 breast cancer cells; assay type: cell-based; details: Homo sapiens; BT-474 (Her-2+), treated for 24 h
# Protocol: as §1, with “h. Medium were removed, blue formazan was dissolved in DMSO, and the absorbance was read at 570 nm^20.” for “h.”
# SKBR-3 = test: Cell viability, SKBR-3 breast cancer cells; assay type: cell-based; details: Homo sapiens, SK-BR-3; SKBR-3 (Her-2+), treated for 24 h
# Protocol: as §1, with “h. Medium were removed, blue formazan was dissolved in DMSO, and the absorbance was read at 570 nm^20.” for “h.”
# HS-578T = test: Cell viability, HS-578T breast cancer cells; assay type: cell-based; details: Homo sapiens; HS-578T (Triple negative), treated for 24 h
# Protocol: as §1, with “h. Medium were removed, blue formazan was dissolved in DMSO, and the absorbance was read at 570 nm^20.” for “h.”
# [3] = system: Doxorubicin-resistant MDA-MB-231; test: Cell viability, Doxorubicin-resistant MDA-MB-231; assay type: cell-based; details: for IC50: Doxorubicin-resistant MDA-MB-231, treated for 24 h
# Protocol: as §1, with “h. Medium were removed, blue formazan was dissolved in DMSO, and the absorbance was read at 570 nm^20.” for “h.”
# [4] = system: various breast cancer cell lines; test: Cell viability, various breast cancer cell lines (21a compared with curcumin); assay type: cell-based; details: TNBC cells
# Protocol: as §1, with “h. Medium were removed, blue formazan was dissolved in DMSO, and the absorbance was read at 570 nm^20.” for “h.”
# [5] = Stability of 21a in the culture media; assay type: physicochemical; details: media after 72 h treatment analyzed for curcumin
# Protocol: Besides, the stability of 21a in the culture media was tested.
# MDA-MB-231 Xenograft [6] = test: In vivo antitumor activity, MDA-MB-231 Xenograft nude mice model
# Protocol: Female nu/nu mice (5 weeks old) were from National Laboratory Animal Center, Taipei, Taiwan. Mice were maintained under the procedures and guidelines from the Institutional Animal Care and Use Committee of the National Health Research Institutes, Taipei, Taiwan. All experiments were supervised under the Institutional Animal Care and Use Committee, China Medical University, Taichung, Taiwan. MDA-MB-231 breast cancer cells (5×10^6 cells per mouse) were suspended in 0.1 ml of Matrigel solution (50% (v/v) Matrigel in PBS) and inoculated into the mammary fat pads of the mice. […] Compounds was administered P.O. once every day for 32 days. Tumor size and mouse body weight were measured once every 4 days, and tumor volume (mm3) was calculated using the equation: length×(width)^2×0.5. At the end of experiments, mice were sacrificed and tumor nodules were dissected and weighed.
# [7] = Preliminary acute toxicity assay; details: 21 days observation
# Protocol: Normal mice were treated with 21a or 35a by oral route at 500 mg/kg/day for 5 consecutive days, following by 21 days of post-treatment observation. […] Detailed data for their toxicology and safety pharmacology studies will be carried out in the near future.
# Female nu/nu mice (5 weeks old) were P.O. with vehicle (propylene glycol, 0.1 ml) or high dose of 21a (250 and 500 mg/kg) and 35a (500 mg/kg) for 5 days followed by observation of behavior and lethargy for 21 days.
# MDA-MB-231 cells [8] = test: Cell cycle distribution analysis (PI, flow cytometry); assay type: cell-based, human; details: 5 μM, 24 h
# Protocol: For cell cycle and sub-G1 (apoptosis) determinations, the harvested cells were fixed gently by putting 70% ethanol in 4° C. overnight and then re-suspended in PBS containing 40 μg/ml PI and 0.1 mg/ml RNase and 0.1% Triton X-100 in dark room for 30 min at 37° C. Those cells were analyzed with a flow cytometer equipped with an argon ion laser at 488 nm wavelength^22.
# CDK1 = CDK1 kinase assay on extracts of treated cells; assay type: cell-based, human; details: 4-12 h of treatment
# Protocol: CDK1 kinase activity was analyzed according to the protocol of Medical & Biological Laboratories CDK1 kinase assay kit (MBL International, Nagoya, Japan). In brief; the ability of cell extract prepared from each treatment was measured to phosphorylate its specific substrate, MV Peptide as described previously^23.
# MDA-MB-231 cells [9] = test: Immunofluorescence staining LC3B and p62; assay type: cell-based, human; details: 5 μM and 10 μM, 24 h
# Protocol: Cells were grown on sterile coverslips placed in a 6-well plate. After treatments, cells were fixed with 4% (w/v) paraformaldehyde and permeabilized with 0.2% (v/v) Triton X-100 in PBS. After blocking with 2% (w/v) bovine serum albumin in PBS, […] was detected using anti-LC3B and anti-p62 antibody followed by reaction with FITC or PE-conjugated secondary antibody (BD Biosciences). Coverslips were mounted on glass slides with Prolong Gold Antifade Reagent containing DAPI (Invitrogen), and fluorescence images were taken on a Leica Microsystems TCS SP2 Confocal Spectral microscope^26.
# MDA-MB-231 Xenograft [10] = system: MDA-MB-231 Xenograft
# Protocol: Female nu/nu mice (5 weeks old) were from National Laboratory Animal Center, Taipei, Taiwan. […] MDA-MB-231 breast cancer cells (5×10^6 cells per mouse) were suspended in 0.1 ml of Matrigel solution (50% (v/v) Matrigel in PBS) and inoculated into the mammary fat pads of the mice. […] Compounds was administered P.O. once every day for 32 days. Tumor size and mouse body weight were measured once every 4 days, and tumor volume (mm3) was calculated using the equation: length×(width)^2×0.5. At the end of experiments, mice were sacrificed and tumor nodules were dissected and weighed.
structure (smiles),measurement,setting,value
"COc1cc(/C=C/C(=O)/C=C(O)/C=C/c2ccc(OC(=O)C(C)(CO)CO)c(OC)c2)ccc1OC(=O)C(C)(CO)CO [Compound 21a, ((1E,3Z,6E)-3-Hydroxy-5-oxohepta-1,3,6-triene-1,7-diyl)bis(2-methoxy-4,1-phenylene) bis(3-hydroxy-2-(hydroxymethyl)-2-methylpropenoate)]",viability of MDA-MB-231 cells,"[1]; 0, 1, 3, 5 and 10 μM, 24 h, concentration-dependent",significantly reduced
same,combination effect with Doxorubicin,"[1]; 21a in combination with Doxorubicin, MDA-MB-231 cells",Synergistic anticancer effect
same,IC50,"[1]; MDA-MB-231, treated 24 hours, read-out: IC50 24 hours",5.37 ± 1.22 µM
same,IC50,"[1]; MDA-MB-231, treated 48 hours, read-out: IC50 48 hours",3.06 ± 0.18 µM
same,IC50,"[1]; MDA-MB-231, treated 72 hours, read-out: IC50 72 hours",2.67 µM
same,times more potent than curcumin (IC50),"[1]; MDA-MB-231, 72 h treatment, curcumin IC50 16.23 μM",6.2 times
same,IC50,"[2]; HCT-116, treated 24 hours, read-out: IC50 24 hours",10.5 ± 1.03 µM
same,IC50,"[2]; HCT-116, treated 48 hours, read-out: IC50 48 hours",6.25 ± 0.596 µM
same,IC50,"[2]; HCT-116, treated 72 hours, read-out: IC50 72 hours",3.91 ± 0.27 µM
same,IC50,"PC3 prostate cancer cell; PC-3, treated 24 hours, read-out: IC50 24 hours",7.8 ± 0.03 µM
same,IC50,"PC3 prostate cancer cell; PC-3, treated 48 hours, read-out: IC50 48 hours",6 ± 0.35 µM
same,IC50,"PC3 prostate cancer cell; PC-3, treated 72 hours, read-out: IC50 72 hours",3.9 ± 0.08 µM
same,IC50,T47D,19.3 ± 1.71 µM
same,IC50,MCF-7,6.13 ± 0.51 µM
same,IC50,MDA-MB-453,3.97 ± 0.27 µM
same,IC50,BT-474,6.15 ± 0.87 µM
same,IC50,SKBR-3,6.39 ± 0.43 µM
same,IC50,HS-578T,7.96 ± 0.27 µM
same,times greater inhibitory activity than curcumin,[3]; Doxorubicin-resistant MDA-MB-231,10 times
same,IC50,[3],6.52 ± 1.7 µM
same,IC50,"[3]; Homo sapiens, MDA-MB-231, 24 h",6.5 µM
same,times greater inhibitory activity than curcumin,[4],3.4-7.4 times
same,stability in the culture media,[5],stable
same,"antitumor activity, fold more potent than curcumin",MDA-MB-231 Xenograft [6]; MDA-MB-231 Xenograft nude mice model,10 fold
same,antitumor activity,MDA-MB-231 Xenograft [6]; PO 5 mg/kg/day,significant antitumor activity
same,inhibitory efficacy,MDA-MB-231 Xenograft [6]; PO 10 mg/kg/day,equivalent to 100 mg/kg/day of curcumin
same,tumor weight lighter than that of the control group,MDA-MB-231 Xenograft [6]; PO 50 mg/kg/day,60%
same,inhibition of MDA-MB-231 tumor growth,"MDA-MB-231 Xenograft [6]; PO 5, 10, 25 and 50 mg/kg/day",dose- and time-dependent inhibition
same,"body weight, behavior change and blood chemistry (serology detection)",MDA-MB-231 Xenograft [6]; treated vs untreated control group during antitumor evaluation,no significant difference
same,behavior and death at end of experiment,"[7]; P.O. 21a 250 and 500 mg/kg, 35a 500 mg/kg for 5 days",no behavior alternation and death
same,body weight and behavior change,"[7]; oral 500 mg/kg/day for 5 consecutive days, vs untreated control",no significant difference
same,G2/M cell population,MDA-MB-231 cells [8],significantly increased
same,CDK1 activity,CDK1,significant decrease
same,LC3B-positive and p62-positive cells,MDA-MB-231 cells [9],significantly increased
same,tumor weight smaller than that of the control group,MDA-MB-231 Xenograft [10]; 21a PO combined with Doxorubicin IP 1 mg/kg/day,80%
same,reduction of MDA-MB-231 tumor weight compared with control group,"MDA-MB-231 Xenograft [10]; 21a alone, PO (50 mg/kg/day)",60%
same,effect of combined use on antitumor activity of Doxorubicin,MDA-MB-231 Xenograft [10]; 21a with Doxorubicin,enhance the antitumor activity of Doxorubicin
